Measured values: US20250127774A1, “COMPOUNDS FOR LABELLING NUCLEIC ACID AND USES THEREOF” (THE ROYAL INSTITUTION FOR THE ADVANCEMENT OF …, priority 2022, published 2025)
Where two headings read alike, the source gives them in different places.

Tests used:
HeLa and U2OS cells = assay: Resazurin assay, toxicity evaluation of PINK; format: cell-based; conditions: low micromolar concentrations of PINK (0-12.5 μM), 24 and 72 h
Protocol: Cellular respiratory activity was evaluated by measuring the fluorescence emission after addition of resazurin ([…]).
Resazurin Assay. HeLa or U2OS cells were seeded in 96-well plates at a density of 7,500 cells per well and incubated overnight. The supernatant was removed and 100 μL fresh media containing PINK (0-12.5 μM; 0.1% DMSO) was added. Cells were grown for 24 or 72 h, at which point 10 μL resazurin (880 μM in PBS; final concentration: 80 μM) was added. After incubation for 3 h, the fluorescence emission at 590 nm (excitation 560 nm; cut-off: 575 nm) was measured using a SpectraMax M5 plate reader (Molecular Devices, Sunnyvale, CA, USA). LC50 values were determined from two independent replicates.

[1] = system: vinyl-modified RNA in Hela cells; assay: Metabolic RNA labeling; format: cell-based; conditions: VU 2.5 mM 24 h, PINK 100 μM 5 h; diminished by RNase A/T1
Protocol: The labeling approach was extended to vinyl-modified RNA. Hela cells were seeded in ibidi® 8-well plates (5.000 cells per well) and allowed to settle overnight. Cells were then incubated with 5-vinyl uridine (VU, 2.5 mM) for 24 h. After 19 h, PINK (100 μM final concentration) was added for 5 h. […]. Cells were fixed and optionally treated with RNase A/T1 mix (100 μg/mL RNase A; 250 U/mL RNase T1). Total cellular DNA was counterstained with Hoechst 33342 (5 μg/mL). Images were acquired on confocal microscopes under 20× (a) or 63× (b) magnification (FIG. 13).
Metabolic RNA Labeling. Hela cells were seeded in μ-slide 8-well chambers (ibidi®), cat-#: 80826) at a density of 2.0×10^4 cells per mL (5.000 cells per well) and allowed to settle overnight. Cells were aspirated and 5-vinyl uridine (VU, 2.5 mM, 0.1% DMSO) was added. Cells were incubated for 19 h, at which point PINK (100 μM; 0.2% DMSO final concentrations) was added. After additional 5 h, cells were aspirated, washed with PBS, and fixed with 3.7% PFA in PBS for 15 min. Cells were quenched with 50 mM glycine/NH4Cl for 5 min, washed with PBS, and permeabilized twice with 0.2% Triton X-100 in PBS for 5 min each followed by washing with PBS, twice 100 mM NaOAc buffer (pH 5.2), 10% DMSO in PBS, and PBS for 5 min each. […]

MOLM-13 cells [2] = assay: Resazurin combination toxicity assay; format: cell-based, human; conditions: Homo sapiens, MOLM-13, MOLM-13; variable VdU/VdA alone or with 1 μM PINK added 24 h post nucleoside addition; read-out: IC50 value (48 h) for sequential addition
Protocol: (§1) From the single toxicity experiment, it was determined that the optimal subtoxic concentration of PINK to be used for the combination toxicity assays would be 1 μM. To test how effective the vinyl-nucleosides (VdU/VdA) in combination with PINK are at killing the cells compared to the vinyl-nucleosides alone, another resazurin reduction assay was carried out.
(§2) Resazurin Combination toxicity assays. MV4-11, MOLM-13 and Jurkat cells were seeded in 96-well plates at a density of 20 000 cells/well, 25 000 cells/well and 30 000 cells/well, respectively, in triplicates. For the sequential addition, the cells were first treated with the nucleosides (VdU/VdA) diluted in fresh media in 1:4 serial dilutions (˜0.01% DMSO) at concentrations of 500-0 μM, and incubated overnight. 24h post nucleoside addition, the cells were treated with 1 μM PINK diluted in fresh media (˜1% DMSO), and incubated for 24-72h. The cells were treated with resazurin, incubated and measured, as described above. For the simultaneous addition, the cells were treated with nucleosides and PINK on the same day at the same concentrations as describes above, and incubated for 24-72h.

Jurkat cells [3] = assay: Resazurin combination toxicity assay; format: cell-based; conditions: Homo sapiens
Protocol: as §1
(§3) To determine if it is possible to treat the leukemia cells with the vinyl-nucleosides and PINK simultaneously, instead of adding them sequentially, another resazurin reduction assay using the same concentrations of each compound as in the previous combination experiment was carried out, where instead the vinyl-nucleosides and PINK were added on the same day instead of on two consecutive days.
as §2

MV4-11 cells [4] = assay: Resazurin combination toxicity assay; format: cell-based; conditions: Homo sapiens
Protocol: as §1, §3, §2

Jurkat cells [5] = assay: Cell counting assay (Trypan Blue); format: cell-based, human; conditions: 10 μM nucleoside, 1 μM PINK
Protocol: (§4) To confirm the cytotoxicity results obtained from the resazurin assays, a cell counting assay was conducted using Trypan Blue. It is an azo dye allows to discriminate between viable cells and dead cells, since dead cells will take in the dye, while viable cells will remain white. 28 From the resazurin assays, and after some optimization based on cell sensitivity to the vinyl-nucleosides, it was determined that […] and 5 μM of vinyl-nucleosides alone and in combination with 1 μM of PINK were two interesting concentrations to explore in Jurkat, MV4-11, and MOLM-13 cells. Cells were incubated with 5 μM or 10 μM of each nucleoside overnight (Day 0), and 1 μM of PINK was added for the combinations and PINK alone 24h post nucleoside incubation (Day 1). The cells were counted every 24h.
(§5) Cell Counting Assay. Jurkat, MV4-11 and MOLM-13 cells were seeded in 12-well plates at a density of 500 000 cells/mL, 175 000 cells/mL and 375 000 cells/mL, respectively, in duplicates. The cells were incubated overnight in fresh media containing 10 μM (Jurkat) or 5 μM (MV4-11 and MOLM-13) of each nucleoside (˜0.01% DMSO). 24h post nucleoside addition, 1 μM of PINK (˜0.01% DMSO) were added to the respective wells and incubated for 24 h. The cells were counted using a cell counter (BIO RAD TC20) to determine the percentage of viable cells and the cell concentration. The cells were counted every 24h using Trypan Blue in a 1:1 ratio.

MV4-11 cells [6] = assay: Cell counting assay (Trypan Blue); format: cell-based, human; conditions: MV4-11, 5 μM nucleoside, 1 μM PINK
Protocol: as §4, §5

MOLM-13 cells [7] = assay: Cell counting assay (Trypan Blue); format: cell-based, human; conditions: MOLM-13, 5 μM nucleoside, 1 μM PINK
Protocol: as §4, §5

[8] = 48 h, variable VdU/VdA alone or with 1 μM PINK added on the same day, read-out: IC50 value (48 h) for simultaneous addition
[9] = variable VdU/VdA alone or with 1 μM PINK added 24 h post nucleoside addition, read-out: IC50 value (48 h) for sequential addition

Row | Compound | toxicity to cells (cellular respiratory activity, resazurin) (HeLa and U2OS cells) | fluorescent signal of live-cell metabolic RNA labeling [1] | IC50 (MOLM-13 cells [2]) | IC50 (Jurkat cells [3]; [8]) | IC50 (Jurkat cells [3]; [9]) | IC50 (MV4-11 cells [4]; [8]) | IC50 (MV4-11 cells [4]; [9]) | cell concentration (cell growth) (Jurkat cells [5]) | cell concentration (cell growth) (MV4-11 cells [6]) | cell concentration (cell growth) (MOLM-13 cells [7])
1 | Cc1nnc(-c2ccc3cc4ccc(N(C)C)cc4nc3c2)nn1 [PINK] | not toxic to cells even at longer incubation times | strong fluorescent signal | – | – | – | – | – | – | – | –
2 | C=Cc1cn([C@H]2C[C@H](O)[C@@H](CO)O2)c(=O)[nH]c1=O [VdU, 5-vinyl-2′-deoxyuridine] | – | – | 18 µM | 404 µM | 58 µM | 124 µM | 60 µM | more impact on cell growth than expected from the resazurin assay | significantly inhibited cell growth | seem to inhibit cell growth
